# Measurements as given in article PMC10538376 (Journal of the American Chemical Society, 2023).
# Assays:
# [1] = tested on: methicillin-susceptible S. aureus (MSSA); experiment: In vitro antimicrobial activity, MSSA; type: cell-based
# [2] = tested on: methicillin-resistant S. aureus (MRSA); experiment: In vitro antimicrobial activity, MRSA; type: cell-based
# [3] = tested on: VanA vancomycin-resistant E. faecium (VRE); experiment: In vitro antimicrobial activity, VanA VRE; type: cell-based; conditions: comparator named in value
# [4] = tested on: Ac2-L-Lys-D-Ala-D-Lac (33); experiment: Model ligand binding, ligand of vancomycin-resistant organisms
# [5] = 30 vs CBP-vancomycin, 31 vs G3,CBP-vancomycin
Substance,fold improvement of activity relative to 1 [1],"activity compared with the corresponding vancomycin derivative, in words [1, 5]",fold improvement of activity relative to 1 [2],"activity compared with the corresponding vancomycin derivative, in words [2, 5]","antimicrobial activity against VanA VRE, result in words [3]","Ka, binding to model ligand 33 [4]",fold less effective binding of 33 than of Ac2-L-Lys-D-Ala-D-Ala [4]
CBP-tetrachlorovancomycin [Compound 30],50 fold,indistinguishable,50 fold,indistinguishable,comparable to CBP-vancomycin,,
vancomycin [reference compound],,,,,inactive,,
"2e,6e-dichlorovancomycin [Compound 1]",,,,,inactive,< 470 M⁻¹,1000 fold
